Assays:
Type in all cases: toxicity, cell-based
U2OS = experiment: Incucyte cell viability with U2OS; details: human, 10 µM, compound concentration 10 uM
Fibroblast = experiment: Incucyte cell viability with human fibroblast; details: 10 µM, compound concentration 10 uM
HEK-293T = experiment: Incucyte cell viability with HEK293T; details: human, 10 µM, compound concentration 10 uM
[1] = 0 h, replicate number 1, timepoint 0 hours
[2] = 0 h, replicate number 2, timepoint 0 hours
[3] = 6 h, replicate number 1, timepoint 6 hours
[4] = 6 h, replicate number 2, timepoint 6 hours
[5] = 12 h, replicate number 1, timepoint 12 hours
[6] = 12 h, replicate number 2, timepoint 12 hours
[7] = 18 h, replicate number 1, timepoint 18 hours
[8] = 18 h, replicate number 2, timepoint 18 hours
[9] = 24 h, replicate number 1, timepoint 24 hours
[10] = 24 h, replicate number 2, timepoint 24 hours
Further: unitless GR value; below 1 slowed growth and below 0 cell loss.

Row | SMILES | Growth Rate (U2OS; [1]) | Growth Rate (U2OS; [2]) | Growth Rate (U2OS; [3]) | Growth Rate (U2OS; [5]) | Growth Rate (U2OS; [6]) | Growth Rate (U2OS; [7]) | Growth Rate (U2OS; [8]) | Growth Rate (Fibroblast; [2]) | Growth Rate (Fibroblast; [3]) | Growth Rate (Fibroblast; [5]) | Growth Rate (Fibroblast; [6]) | Growth Rate (Fibroblast; [7]) | Growth Rate (Fibroblast; [8]) | Growth Rate (Fibroblast; [9]) | Growth Rate (HEK-293T; [1]) | Growth Rate (HEK-293T; [2]) | Growth Rate (HEK-293T; [4]) | Growth Rate (HEK-293T; [5]) | Growth Rate (HEK-293T; [7]) | Growth Rate (HEK-293T; [9]) | further results
1 | O=c1ccn([C@@H]2O[C@H](COP(=O)([O-])OP(=O)([O-])OP(=O)([O-])O)[C@@H](O)[C@H]2O)c(=O)[nH]1.[Na+].[Na+].[Na+] | 0.49 | 0.48 | 0.21 | 0.6 | 0.94 | 0.83 | 0.93 | 0.81 | 0.2 | 0.12 | 0.75 | 0.29 | 0.88 | 0.13 | 0.09 | 0.62 | 0.41 | 0.84 | 0.92 | 0.85 | Growth Rate (U2OS; [4]): 0.83; Growth Rate (U2OS; [9]): 0.99; Growth Rate (U2OS; [10]): 0.94; Growth Rate (Fibroblast; [4]): 0.66; Growth Rate (Fibroblast; [10]): 0.78; Growth Rate (HEK-293T; [3]): 0.64; Growth Rate (HEK-293T; [6]): 0.64; Growth Rate (HEK-293T; [8]): 0.75; Growth Rate (HEK-293T; [10]): 0.72
2 | COC[C@@H](c1ccc(C(F)(F)F)cc1)N1CCN(C2(C)CCN(C(=O)c3c(C)ncnc3C)CC2)C[C@@H]1C.O=C(O)/C=C\C(=O)O [VICRIVIROC MALEATE] | -0.67 | -0.31 | 0.58 | 0.57 | 0.98 | 0.7 | 0.98 |  | -0.4 | 0.17 | 0.68 | 0.48 | 0.79 | 0.67 | 0.38 | -1 |  | 0.66 | 0.49 | 0.39 | Growth Rate (U2OS; [9]): 0.8; Growth Rate (U2OS; [10]): 0.97; Growth Rate (Fibroblast; [4]): 0.52; Growth Rate (Fibroblast; [10]): 0.83
3 | Cn1cnc(-c2cc3nccc(Oc4ccc(NC(=S)NC(=O)Cc5ccccc5)cc4F)c3s2)c1 | -0.11 | -0.99 |  |  | 0.95 |  | 0.93 | 0.94 | 0.43 | -0.11 | 0.3 | 0.43 | 0.77 | 0.31 |  |  | -0.26 | -0.02 | 0.28 | 0.6 | Growth Rate (U2OS; [10]): 0.98; Growth Rate (Fibroblast; [4]): -0.42; Growth Rate (HEK-293T; [3]): -0.37; Growth Rate (HEK-293T; [6]): 0.34; Growth Rate (HEK-293T; [8]): 0.64; Growth Rate (HEK-293T; [10]): 0.99
4 | COCCN1CCC(c2cc(CN(C)C(=O)c3cccc(Oc4ccccc4)c3)ccn2)CC1 | -0.65 | -0.76 | 0.63 | 0.74 | 0.87 | 0.67 | 0.97 |  | 0.77 |  |  |  |  |  |  | 0.76 |  | 0.83 | 0.81 | 1 | Growth Rate (U2OS; [4]): 0.6; Growth Rate (U2OS; [9]): 0.93; Growth Rate (Fibroblast; [1]): 0.94; Growth Rate (HEK-293T; [3]): 0.44; Growth Rate (HEK-293T; [6]): 0.93; Growth Rate (HEK-293T; [8]): 0.92; Growth Rate (HEK-293T; [10]): 0.89
5 | CC[C@@]1(O)C(=O)OCc2c1cc1n(c2=O)Cc2cc3ccccc3nc2-1 [CAMPTOTHECIN] | -0.11 | -0.34 | 0.7 | 0.75 | 0.64 | 0.59 | 0.33 | 0.11 | 1 |  |  |  |  |  | -0.84 | 0.83 |  | 0.88 |  | 0.65 | Growth Rate (U2OS; [4]): 0.82; Growth Rate (U2OS; [9]): 0.48; Growth Rate (U2OS; [10]): 0.2; Growth Rate (Fibroblast; [1]): -0.02; Growth Rate (HEK-293T; [3]): -0.29; Growth Rate (HEK-293T; [10]): 0.41
6 | CC(C)CCC[C@@H](C)[C@H]1CC[C@H]2[C@@H]3[C@H](O)C=C4C[C@@H](O)CC[C@]4(C)[C@H]3CC[C@]12C |  | 0.03 | 0.98 |  |  |  |  | -0.09 | 0.24 | 0.24 | 0.91 | 0.52 | 0.84 | 0.5 | 0.95 | -0.21 |  |  | 0.84 | 0.85 | Growth Rate (Fibroblast; [4]): 0.56; Growth Rate (Fibroblast; [10]): 0.43; Growth Rate (HEK-293T; [10]): 0.96
7 | COc1ccc2c(c1OCc1ccccc1)C[C@@H](C(=O)O)N(C(=O)C(c1ccccc1)c1ccccc1)C2 [OLODANRIGAN] |  | -1 |  |  | 0.89 |  | 0.98 | 0.27 | 0.24 |  |  |  |  | 0.83 |  |  | 0.64 | 0.74 | 0.8 | 0.86 | Growth Rate (Fibroblast; [1]): 0.93; Growth Rate (HEK-293T; [3]): 0.62
8 | CN1CCN(c2cc(-c3ccccc3)nc(N)n2)CC1 | 0.75 |  |  |  | 0.96 | 0.97 |  | 0.38 |  | 0.86 |  | 0.76 |  | 0.83 |  |  | 0.96 |  |  |  | Growth Rate (U2OS; [4]): 0.59; Growth Rate (Fibroblast; [1]): 0.2
9 | CCCCOCCOc1nc(-c2ccc(C(=O)O)c(F)c2)sc1C | -0.03 | -0.3 | 0.21 | 0.49 |  | 0.88 | 0.86 | -0.25 | 0.05 | 0.16 | 0.63 | 0.35 | 0.73 | 0.23 | 0.61 | 0.25 | 0.87 |  | 0.94 | 0.95 | Growth Rate (U2OS; [4]): 0.97; Growth Rate (U2OS; [9]): 0.94; Growth Rate (U2OS; [10]): 0.84; Growth Rate (Fibroblast; [10]): 0.7; Growth Rate (HEK-293T; [6]): 0.88; Growth Rate (HEK-293T; [8]): 0.82; Growth Rate (HEK-293T; [10]): 0.69
10 | CC(C)(O)C(=O)N1CCN(c2ccc(C(F)(F)F)c(C3=C(c4c[nH]c5ccccc45)C(=O)NC3=O)c2)CC1 | -0.52 | 0.29 | 0.8 | 0.92 | 0.78 | 0.66 | 0.68 | -0.42 | -0.69 | -0.33 | 0.04 | -0.31 | -0.06 | -0.3 |  | 0.33 | 0.88 | 0.3 | 0.44 | 0.33 | Growth Rate (U2OS; [4]): 0.91; Growth Rate (U2OS; [9]): 0.67; Growth Rate (U2OS; [10]): 0.58; Growth Rate (Fibroblast; [1]): -0.17; Growth Rate (Fibroblast; [4]): 0.17; Growth Rate (Fibroblast; [10]): -0.09; Growth Rate (HEK-293T; [3]): 0.49; Growth Rate (HEK-293T; [6]): 0.37; Growth Rate (HEK-293T; [8]): 0.36
11 | COC1(C[S@@+]([O-])c2ccccc2)CCN(CCc2c[nH]c3ccc(F)cc23)CC1 | 0.42 | -1 | -0.09 |  |  |  |  |  | 0.42 | 0.32 | 0.15 | 0.49 | 0.53 | 0.53 | 0.79 |  | 0.72 |  | 0.91 | 0.8 | Growth Rate (Fibroblast; [4]): -0.24; Growth Rate (Fibroblast; [10]): 0.79; Growth Rate (HEK-293T; [6]): 0.77
12 | N[C@@H](CCP(=O)(O)O)C(=O)O |  | -1 | 0.67 | 0.39 |  | 0.86 | 0.78 |  | -0.06 | 0.45 |  |  |  |  | 0.99 |  | 0.79 |  |  |  | Growth Rate (U2OS; [10]): 0.97; Growth Rate (HEK-293T; [6]): 0.88; Growth Rate (HEK-293T; [10]): 0.78
13 | Br.Br.c1ncc(CC2CCNCC2)[nH]1 | 0.94 |  | 0.57 | 0.9 |  |  |  | 0.06 | 0.88 | 0.69 | 0.81 | 0.72 | 0.93 | 0.77 | 0.53 | 0.07 |  | 0.99 | 0.81 | 0.95 | Growth Rate (Fibroblast; [1]): 0.49; Growth Rate (Fibroblast; [4]): 0.53; Growth Rate (Fibroblast; [10]): 0.76; Growth Rate (HEK-293T; [3]): 0.8; Growth Rate (HEK-293T; [6]): 0.73; Growth Rate (HEK-293T; [8]): 0.93; Growth Rate (HEK-293T; [10]): 0.94
